Laboratory results from PMC9266797 (2022).

Columns and labels:
[1] = test system: poly A–poly U (RNA, polymer) A/U; test: UV melting at 260 nm; settings: Na+ (sodium cacodylate, I = 0.05 M); pH 7.0; RNA 25 µM, r = 0.25; no Cu2+; per base
[2] = test system: poly dAdT–poly dAdT (DNA, polymer) AT; test: UV melting at 260 nm; settings: Na+ (sodium cacodylate, I = 0.05 M); pH 7.0; DNA 25 µM; no Cu2+; per base
[3] = test system: poly A–poly U (RNA, polymer) A/U; test: fluorimetric titration, Scatchard fit; settings: Na+ (sodium cacodylate, I = 0.05 M), n fixed at 0.2 per nucleobase, per base
[4] = test system: poly dAdT–poly dAdT (DNA, polymer) AT; test: DAPI displacement by CD (ICD at 375 nm); settings: Na+ (sodium cacodylate, I = 0.05 M), pH 7.0, DAPI displaced; for IDA50%: ratio [DAPI]/[compound], range printed for 6 and 7 together
[5] = test system: poly dAdT–poly dAdT (DNA, polymer) AT; test: CD (induced band at 375 nm); settings: Na+ (sodium cacodylate, I = 0.05 M); pH 7.0; DNA 20 µM, r[DAPI]/[DNA] = 0.6

Structure (SMILES) | ∆Tm [1] [°C] | ∆Tm [2] [°C] | log Ks ([3]; pH 7.0, 0.04% DMSO, 1 µM compound) | IDA50% [4] | binding ([4]; very weakly) | log Ks ([3]; pH 7.0) | binding [5]
COC(=O)[C@H](Cc1c[nH]c2ccccc12)NC(=O)C(Cc1cn(COC(=O)C(C)(C)C)nn1)NC(=O)CCCc1ccc2ccc3cccc4ccc1c2c34 (stereo partly shown) | 0 ± 0.5 | 0 ± 0.5 | 6.8 | 0.02–0.01 | – | – | –
COC(=O)[C@H](Cc1c[nH]c2ccccc12)NC(=O)C(Cc1cn(COC(=O)C(C)(C)C)nn1)NC(=O)[C@@H](N)Cc1c[nH]c2ccccc12 (stereo partly shown) | 0 ± 0.5 | – | – | – | weak | – | –
COC(=O)[C@H](Cc1c[nH]c2ccccc12)NC(=O)C(Cc1cn(COC(=O)C(C)(C)C)nn1)NC(=O)c1ccc2ccc3cccc4ccc1c2c34 (stereo partly shown) | 0 ± 0.5 | – | – | 0.02–0.01 | – | 6.6 | –
N=C(N)c1ccc(-c2cc3ccc(C(=N)N)cc3[nH]2)cc1 | – | – | – | – | – | – | yes
